The values that follow come from US7838020B2, “Cosmetic or dermatological composition comprising an association between a compound of the N-acylaminoamide family and at least one matrix metalloproteinase inhibitor” (L'Oreal, priority 2001, dated 2010).

Assay [1] deals with T1, human leukocyte elastase (ELH) (Homo sapiens, UniProt P08246).
T1 sequence (P08246 30-267): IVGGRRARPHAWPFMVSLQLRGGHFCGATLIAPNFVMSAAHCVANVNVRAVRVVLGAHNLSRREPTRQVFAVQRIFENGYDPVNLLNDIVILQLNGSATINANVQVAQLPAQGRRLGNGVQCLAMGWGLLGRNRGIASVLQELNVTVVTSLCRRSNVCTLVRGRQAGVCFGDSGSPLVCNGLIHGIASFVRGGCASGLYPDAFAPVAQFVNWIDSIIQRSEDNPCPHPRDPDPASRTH
As to the kind of experiment: ex vivo activity on surviving human skin fragments treated with ELH, 10 days culture (Example 5). Type of assay: cell-based. To be noted: 0.5 μg ELH per ml; 5 μl of 0.2% compound in ethanol every two days; 10 days at 37° C.; control 7.4%, ELH alone 5.1%. Here is the method: (§1) The ex vivo activity of example 2 compound has been evaluated on surviving human skins treated by a human leukocyte elastase (ELH).
The test is performed the following way:
Fragments of normal human skin from three different donors are deposited in inserts positioned in culture wells. Culture medium added with antibiotics is added in the bottom of the wells. A pass is performed through slow diffusion between the two compartments via a porous membrane (pore size: 12 μm).
The culture medium is renewed every three days.
On the skin fragments, optionally 0.5 μg ELH per ml culture medium are added.
5 μl of the compound to be tested are also added every two days, previously put in solution at 0.2% by weight in ethanol.
The skins are kept surviving for 10 days at 37° C.
(§2) The elastic fibres are coloured in blue using catechin (+) and quantified morphometrically using a computer assisted image analysis. The average derma surface percentage occupied by elastic fibres is evaluated this way.

Assay [2] addresses T1, human leukocyte elastase (ELH). As to the kind of experiment: ex vivo activity on fresh human skin cuts treated with ELH for 2 hours (Example 4). Type of assay: cell-based. To be noted: 20° C. Here is the method:
as §1
The test is performed the following way.
Fresh human skin cuts from two different donors are treated for 2 hours, at 20° C., by 20 μl of a buffer solution (pH 7.4) optionally comprising 10 μg/ml ELH and optionally 0.1% of the compound to be tested, optionally previously put in solution in ethanol.
as §2

Assay [3] shares this target. Nature of the assay: in vitro anti-elastasic activity, Me-OSAAPV-p-NA substrate, spectrophotometry. It is filed as biochemical. The conditions noted are these: even in a small amount (0.01% to 0.2%). The procedure: The anti-elastasic activity of compounds according to the invention is determined in vitro compared to the human leukocyte elastase (ELH).
The test is performed in the following way:
A Me-OSAAPV-p-NA (méthyl-O-succinate alanine alanine proline valine-p-nitroaniline) substrate, onto which ELH (40 milli-units per ml) and 0.1% of the compound to be tested are applied, is left for incubating at 37° C. for 60 minutes.
Thereafter, the % inhibition of the control elastase activity is determined by spectrophotometry.

For the compound `CC(=O)N(c1cccc(C(F)(F)F)c1)C(C(=O)NCC(=O)O)C(C)C` (stereo not shown) [Compound A, {2-[acetyl-(3-trifluoromethyl-phenyl)-amino]-3-méthyl-butyryl-amino}acetic acid], the “% Surface occupied by elastic fibres” value in assay [1] stood at 7.1%; in assay [2] (Skin 1, 10 μg/ml ELH + 0.1% compound, control 12.7%, ELH alone 4.85%) it was 13.95%; in assay [2] (Skin 2, 10 μg/ml ELH + 0.1% compound, control 15.25%, ELH alone 6.85%), 11.85%. The “inhibition of the elastase activity (in words)” value in assay [3] is recorded as “strong inhibition”.
